Assay results as given in publication PMC6053381, “Novel 2-phenyloxypyrimidine derivative induces apoptosis and autophagy via inhibiting PI3K pathway and activating MAPK/ERK signaling in hepatocellular carcinoma cells” (Scientific Reports, 2018).
Where two headings read alike, the source gives them in different places.

How the values were obtained:
MHCC97-L = assay: CellTiter-Glo luminescent cell viability assay; type: cell-based; settings: 120 h incubation, read-out: Anti-proliferative activity IC50 MHCC97-L
Description: (§1) The in vitro antitumor activity of all compounds was screened against six HCC cell lines by CellTiter-Glo luminescent cell viability assay as described earlier. […] After a comprehensive assessment of PDGFR inhibition, cellular activity against HCC cells as well as potential druggability, E5 was chosen to investigate its kinase profiling, antitumor activity and molecular mechanism in the following study. […]
(§2) authenticated by using short tandem repeat (STR) matching analysis. No mycoplasma contamination was detected.
(§3) CellTiter-Glo luminescent cell viability assay
(§4) For experiments hepatocellular carcinoma cells were seeded at 4000 cells per well in 96-well plates. After overnight incubation, solution of compounds in DMSO at various concentrations were added to the cells and further incubated for 120 h. Cell viability was measured with the CellTiter-Glo Luminescent Cell Viability Assay (Promega) according to the manufacturer’s instructions. Luminescence was measured using an EnVision Multilabel Plate Reader (Perkin-Elmer). The cytotoxicity of the compounds was expressed as the percent age of luminescence relative to that of untreated cells . The concentration of compound producing 50% of cell proliferation (IC50) was calculated by nonlinear regression analysis of the response-concentration (log) curve, using the Graph-Pad Prism program package (Graph Pad Software; San Diego, CA). Results are expressed as the means of two […] experiments

Hep3B = assay: CellTiter-Glo luminescent cell viability assay; type: cell-based; settings: 120 h incubation, read-out: Anti-proliferative activity IC50 Hep3B
Description: as §1, §2, §3, §4

BEL7404 = assay: CellTiter-Glo luminescent cell viability assay; type: cell-based; settings: read-out: Anti-proliferative activity IC50 BEL7404
Description: as §1, §2, §3, §4

SMMC-7721 = assay: CellTiter-Glo luminescent cell viability assay; type: cell-based; settings: read-out: Anti-proliferative activity IC50 SMMC-7721
Description: as §1, §2, §3, §4

SNU368 = assay: CellTiter-Glo luminescent cell viability assay; type: cell-based; settings: 120 h incubation, read-out: Anti-proliferative activity IC50 SNU368
Description: as §1, §2, §3, §4

QGY-7703 = assay: CellTiter-Glo luminescent cell viability assay; type: cell-based; settings: read-out: Anti-proliferative activity IC50 QGY-7703
Description: as §1, §2, §3, §4

PDGFRβ = PDGFRβ (Homo sapiens, UniProt P09619); assay: PDGFR kinase assay, Caliper microfluidic mobility shift; type: biochemical; settings: compound at 1 µM, averages of two separate experiments
Sequence of PDGFRβ (P09619 33-1106): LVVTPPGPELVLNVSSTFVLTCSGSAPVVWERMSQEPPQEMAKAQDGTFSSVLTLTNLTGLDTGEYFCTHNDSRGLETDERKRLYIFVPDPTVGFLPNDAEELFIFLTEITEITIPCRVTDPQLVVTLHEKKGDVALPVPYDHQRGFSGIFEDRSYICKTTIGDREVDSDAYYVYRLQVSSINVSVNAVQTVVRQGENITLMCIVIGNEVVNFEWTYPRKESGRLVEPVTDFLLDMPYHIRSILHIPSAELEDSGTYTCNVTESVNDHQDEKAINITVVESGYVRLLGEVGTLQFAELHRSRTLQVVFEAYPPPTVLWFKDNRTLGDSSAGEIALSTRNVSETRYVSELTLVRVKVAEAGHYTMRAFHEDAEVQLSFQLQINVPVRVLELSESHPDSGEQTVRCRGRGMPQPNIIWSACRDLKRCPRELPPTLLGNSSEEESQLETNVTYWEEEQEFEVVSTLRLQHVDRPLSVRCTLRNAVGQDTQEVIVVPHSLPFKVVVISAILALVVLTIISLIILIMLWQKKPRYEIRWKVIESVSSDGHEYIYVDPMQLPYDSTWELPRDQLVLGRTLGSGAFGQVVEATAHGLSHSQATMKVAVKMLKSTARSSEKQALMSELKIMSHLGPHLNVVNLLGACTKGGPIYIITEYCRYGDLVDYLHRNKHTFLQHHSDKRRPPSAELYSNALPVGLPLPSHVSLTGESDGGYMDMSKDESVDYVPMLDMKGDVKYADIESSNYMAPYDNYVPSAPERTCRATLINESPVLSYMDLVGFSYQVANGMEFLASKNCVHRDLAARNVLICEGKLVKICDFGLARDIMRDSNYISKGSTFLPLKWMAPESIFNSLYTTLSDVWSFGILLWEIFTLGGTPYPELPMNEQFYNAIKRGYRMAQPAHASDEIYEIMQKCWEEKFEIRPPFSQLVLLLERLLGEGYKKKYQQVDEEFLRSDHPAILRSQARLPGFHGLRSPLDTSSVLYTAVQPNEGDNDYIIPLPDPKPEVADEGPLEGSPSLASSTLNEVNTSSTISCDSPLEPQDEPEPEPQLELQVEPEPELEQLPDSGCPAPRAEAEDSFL
Procedure: (§5) In vitro inhibitory activities of all compounds at 1 μM against PDGFRα and PDGFRβ were evaluated using Caliper microfluidic mobility shift technology. […] At the same concentration, only E5 inhibited greater than 50% of PDGFRβ activity (Fig. 2B).
(§6) PDGFR kinase activity was measured using Caliper microfluidic mobility shift technology. Briefly, 2 μL compound solution (25 μM) in 25% DMSO per well were added into the 384 well microtiter plates. Then, 10 μL per well of enzyme solution (100 mM HEPES, 10 mM MgCl2, Brij35 (30%) 100 μL, 1 mM DTT, 20 ng enzyme) was added. After a brief centrifugation at 1,000 rpm, the kinase reactions were started by addition of 38 μL per well of peptide/ATP-solution (40 μM ATP, 6.5 μM peptide 5′-FAM-KKKKEEIYFFF-NH2, Tris-HCl buffer, pH 7.0) incubated at 30 °C for 60 min and stopped by the addition of 20 μL 35 mM EDTA per well. The electrophoretic separation of the phosphorylated and non-phosphorylated peptides was then carried out on LabChip EZ Reader II (Caliper Life Sciences). All other kinase reactions were carried out as previously reported using the Kinase-Glo Plus or ADP-Glo assay. Kinase inhibition rates were calculated per manufacturer’s instructions.

PDGFRα = PDGFRα (Homo sapiens, UniProt P16234); assay: as above; type: biochemical; settings: compound at 1 µM, averages of two separate experiments
Sequence of PDGFRα (P16234 24-1089): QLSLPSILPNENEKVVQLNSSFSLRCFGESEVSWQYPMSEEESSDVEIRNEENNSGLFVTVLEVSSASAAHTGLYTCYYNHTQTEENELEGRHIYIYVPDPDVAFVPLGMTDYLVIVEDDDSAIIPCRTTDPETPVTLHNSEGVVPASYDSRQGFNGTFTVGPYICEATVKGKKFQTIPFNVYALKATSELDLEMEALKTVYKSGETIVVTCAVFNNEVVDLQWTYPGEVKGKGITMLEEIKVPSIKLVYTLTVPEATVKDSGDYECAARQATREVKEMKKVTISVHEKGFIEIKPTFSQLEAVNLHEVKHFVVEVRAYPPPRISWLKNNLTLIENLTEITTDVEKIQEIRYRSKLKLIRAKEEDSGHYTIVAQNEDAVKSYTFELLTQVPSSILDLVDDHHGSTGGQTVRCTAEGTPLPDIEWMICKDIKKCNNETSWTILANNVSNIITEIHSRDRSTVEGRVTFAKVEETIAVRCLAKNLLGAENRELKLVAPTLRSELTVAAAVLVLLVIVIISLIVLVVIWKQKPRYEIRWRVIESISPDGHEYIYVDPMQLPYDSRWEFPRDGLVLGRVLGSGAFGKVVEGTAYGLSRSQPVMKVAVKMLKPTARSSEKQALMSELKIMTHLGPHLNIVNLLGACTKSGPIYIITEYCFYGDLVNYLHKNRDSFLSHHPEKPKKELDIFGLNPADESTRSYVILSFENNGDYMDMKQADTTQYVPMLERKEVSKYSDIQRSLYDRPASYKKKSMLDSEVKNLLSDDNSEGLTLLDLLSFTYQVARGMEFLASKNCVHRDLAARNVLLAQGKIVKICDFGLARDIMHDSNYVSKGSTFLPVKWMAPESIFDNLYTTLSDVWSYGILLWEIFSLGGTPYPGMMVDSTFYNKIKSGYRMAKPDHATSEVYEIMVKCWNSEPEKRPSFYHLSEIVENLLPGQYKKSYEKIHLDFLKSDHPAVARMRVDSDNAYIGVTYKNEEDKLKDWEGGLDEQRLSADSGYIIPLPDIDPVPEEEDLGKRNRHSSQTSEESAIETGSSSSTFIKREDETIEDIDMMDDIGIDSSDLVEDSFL
Procedure: as §5, §6

SMILES	IC50 (MHCC97-L; MHCC97L)	IC50 (Hep3B; Homo sapiens, Hep3B)	IC50 (BEL7404; Homo sapiens, BEL-7404, 120 h incubation)	IC50 (SMMC-7721; Homo sapiens, SMMC-7721, 120 h incubation)	IC50 (SNU368)	IC50 (QGY-7703; Homo sapiens, QGY-7703, 120 h incubation)	inhibition at 1 µM (PDGFRβ; read-out: Inhibition effect (%) PDGFRβ)	inhibition at 1 µM (PDGFRα; read-out: Inhibition effect (%) PDGFRα)	IC50 (MHCC97-L)	IC50 (Hep3B)	IC50 (BEL7404; 120 h incubation)	IC50 (SMMC-7721; 120 h incubation)	IC50 (QGY-7703; 120 h incubation)	Inhibition effect (%) PDGFRβ (PDGFRβ)	Inhibition effect (%) PDGFRα (PDGFRα)
Cc1ccc(N)cc1Oc1nccc(-c2cccnc2)n1 [A1]	15.1 µM	15.8 µM	10.8 µM	13.6 µM	85.7 µM	24.5 µM	21.4%	39.1%							
Cc1ccc(NC(=O)Cc2ccccc2)cc1Oc1nccc(-c2cccnc2)n1 [A2]					112 µM				> 200 µM	39.5 µM	39.3 µM	84.3 µM	59.8 µM	40.73%	
Cc1ccc(C(=O)Nc2ccc(C)c(Oc3nccc(-c4cccnc4)n3)c2)cc1 [A3]					51.4 µM				22.3 µM	21.2 µM	32.8 µM	25.1 µM	47 µM	45.50%	45.45%
Cc1cccc(C(=O)Nc2ccc(C)c(Oc3nccc(-c4cccnc4)n3)c2)c1 [A4]					54 µM				24.5 µM	17.5 µM	12.2 µM	17.5 µM	39.8 µM	43.74%	
COc1ccc(C(=O)Nc2ccc(C)c(Oc3nccc(-c4cccnc4)n3)c2)cc1 [A5]					49.5 µM				31.3 µM	23.3 µM	15.6 µM	23.5 µM	40.5 µM	33.70%	45.20%
Cc1ccc(NC(=O)c2ccc(Cl)cc2)cc1Oc1nccc(-c2cccnc2)n1 [A6]					24 µM				16.2 µM	10.7 µM	9.5 µM	12.3 µM	21.9 µM	35.96%	47.73%
Cc1ccc(NC(=O)c2cccc(Cl)c2)cc1Oc1nccc(-c2cccnc2)n1 [A7]					45.9 µM				51.5 µM	18.9 µM	32.8 µM	27.2 µM	57.8 µM	40.23%	
Cc1ccc(NC(=O)c2ccc([N+](=O)[O-])cc2)cc1Oc1nccc(-c2cccnc2)n1 [A8]					25.7 µM				34.6 µM	14.3 µM	20.1 µM	10.1 µM	24.6 µM	43.24%	
Cc1ccc(NC(=O)c2cccc([N+](=O)[O-])c2)cc1Oc1nccc(-c2cccnc2)n1 [A9]					51.5 µM				53.2 µM	28.4 µM	23.8 µM	26.8 µM	48.4 µM	23.41%	23.63%
Cc1ccc(NC(=O)c2ccc(F)cc2)cc1Oc1nccc(-c2cccnc2)n1 [A10]					38.7 µM				35.7 µM	20.1 µM	28.2 µM	21.1 µM	43.4 µM	30.94%	40.63%
Cc1ccc(NC(=O)c2cccnc2)cc1Oc1nccc(-c2cccnc2)n1 [A11]					94.6 µM				89.3 µM	105 µM	74.2 µM	79.7 µM	252 µM	6.84%	42.91%
Cc1ccc(NC(=O)c2ccncc2)cc1Oc1nccc(-c2cccnc2)n1 [A12]					287 µM				281 µM	130 µM	134 µM	113 µM	170 µM	31.94%	43.17%
Cc1ccc(NC(=O)c2ccccc2)cc1Oc1nccc(-c2ccccc2)n1 [B1]					17.7 µM				4.9 µM	2.7 µM	10.5 µM	2.7 µM	5.8 µM	12.87%	2.32%
Cc1ccc(NC(=O)Cc2ccccc2)cc1Oc1nccc(-c2ccccc2)n1 [B2]					24.8 µM				16.9 µM	13 µM	14.4 µM	11.7 µM	20.6 µM	17.63%	21.09%
Cc1ccc(C(=O)Nc2ccc(C)c(Oc3nccc(-c4ccccc4)n3)c2)cc1 [B3]					12.8 µM				6.1 µM	4.6 µM	3.7 µM	6 µM	7.3 µM	26.17%	23.12%
Cc1cccc(C(=O)Nc2ccc(C)c(Oc3nccc(-c4ccccc4)n3)c2)c1 [B4]					12.9 µM				7 µM	6.4 µM	9.5 µM	6.2 µM	10.2 µM	24.42%	35.04%
COc1ccc(C(=O)Nc2ccc(C)c(Oc3nccc(-c4ccccc4)n3)c2)cc1 [B5]					15.8 µM				9.8 µM	9.2 µM	7.9 µM	8.4 µM	14.9 µM	19.39%	1.81%
Cc1ccc(NC(=O)c2ccc(Cl)cc2)cc1Oc1nccc(-c2ccccc2)n1 [B6]					15 µM				10.5 µM	7.9 µM	13.4 µM	9.7 µM	15.4 µM	18.64%	12.21%
Cc1ccc(NC(=O)c2cccc(Cl)c2)cc1Oc1nccc(-c2ccccc2)n1 [B7]					14 µM				> 200 µM	15.5 µM	18.3 µM	17 µM	25.8 µM	16.63%	31.49%
Cc1ccc(NC(=O)c2ccc([N+](=O)[O-])cc2)cc1Oc1nccc(-c2ccccc2)n1 [B8]					12 µM				14 µM	9 µM	9.9 µM	7.5 µM	14.4 µM	37.71%	26.17%
Cc1ccc(NC(=O)c2cccc([N+](=O)[O-])c2)cc1Oc1nccc(-c2ccccc2)n1 [B9]					16.8 µM				> 200 µM	83.2 µM	12.9 µM	13.8 µM	19.2 µM	19.14%	21.34%
Cc1ccc(NC(=O)c2ccc(F)cc2)cc1Oc1nccc(-c2ccccc2)n1 [B10]					12.6 µM				6.3 µM	5.8 µM	8.1 µM	3.9 µM	10.9 µM	15.63%	19.57%
Cc1ccc(NC(=O)c2cccnc2)cc1Oc1nccc(-c2ccccc2)n1 [B11]					18 µM				53.5 µM	44.2 µM	21.6 µM	20.2 µM	81.1 µM	5.08%	32.00%
Cc1ccc(NC(=O)c2ccoc2)cc1Oc1nccc(-c2cc3ccccc3o2)n1 [E4]					11.4 µM					15.8 µM	5.2 µM	0.4 µM		7.35%	27.18%
